One series can be described thus: Cytotoxicity test. Format: cell-based. To be noted: human, TZM-bl cells.
The nature of a further series: Solubility in water. Format: physicochemical.

In turn, enfuvirtide yielded a CC50 in “Cytotoxicity test” of more than 100 µM. In addition, the “aqueous solubility (in words)” value in “Solubility in water” is given as “negligible”.

The term CC50 denotes the concentration that lowers cell viability or growth by half. A low value points to greater toxicity to the cells.

For the origin of these results see PMC7115413 (European Journal of Medicinal Chemistry, 2016).
